According to ChEMBL document CHEMBL1944566, “Conjugation of cell-penetrating peptides leads to identification of anti-HIV peptides from matrix proteins” (Bioorg Med Chem, 2012):
Active and inactive are the calls of the source. The calls are words filed in the database; no cut-off is given here. Where a SMILES comes first, the peptide text is derived from it. The star is where a group is joined. Cam = NC(=O)C*

Key:
[1] = system: Human immunodeficiency virus 1; test: Antiviral activity against X4 tropic HIV1 NL4-3 in MT4 cells assessed as protection from virus-induced cytopathogenicity after 5 days by MTT assay; assay type: functional, organism-based; settings: Human immunodeficiency virus 1, NL4-3, MT4, 120 h
[2] = system: Human immunodeficiency virus 1; test: Antiviral activity against R5 tropic HIV1 NL(AD8) in PM1/CCR5 cells assessed as protection from virus-induced cytopathogenicity at 25 uM after 5 days by MTT assay; assay type: functional; settings: Human immunodeficiency virus 1, NL(AD8), PM1/CCR5, 120 h
[3] = Cytotoxicity against human MT4 cells after 5 days by MTT assay; assay type: cell-based
[4] = system: Human immunodeficiency virus 1; test: Antiviral activity against R5 tropic HIV1 JR-CSF in PM1/CCR5 cells assessed as protection from virus-induced cytopathogenicity measuring capsid p24 level after 5 days by ELISA; assay type: functional, cell-based; settings: Human immunodeficiency virus 1, JRCSF ISOLATE, PM1/CCR5, 120 h
[5] = system: Human immunodeficiency virus 1; test: Antiviral activity against X4 tropic HIV1 NL4-3 in MT4 cells assessed as protection from virus-induced cytopathogenicity at 12.5 uM after 5 days by MTT assay; assay type: functional, organism-based
[6] = Solubility in PBS buffer; assay type: physicochemical
[7] = system: Human immunodeficiency virus 1; test: Antiviral activity against R5 tropic HIV1 NL(AD8) in PM1/CCR5 cells assessed as protection from virus-induced cytopathogenicity after 5 days by MTT assay; assay type: functional, organism-based; settings: Human immunodeficiency virus 1, NL(AD8), PM1/CCR5, 120 h
[8] = system: Human immunodeficiency virus 1; test: Antiviral activity against X4 tropic HIV1 NL4-3 in MT4 cells assessed as protection from virus-induced cytopathogenicity at 25 uM after 5 days by MTT assay; assay type: functional, organism-based
[9] = system: Human immunodeficiency virus 1; test: Antiviral activity against R5 tropic HIV1 NL(AD8) in PM1/CCR5 cells assessed as protection from virus-induced cytopathogenicity at 50 uM after 5 days by MTT assay; assay type: functional; settings: Human immunodeficiency virus 1, NL(AD8), PM1/CCR5, 120 h
[10] = system: Human immunodeficiency virus 1; test: Antiviral activity against R5 tropic HIV1 JR-CSF in PM1/CCR5 cells assessed as protection from virus-induced cytopathogenicity measuring capsid p24 level at 50 uM after 5 days by ELISA; assay type: functional; settings: Human immunodeficiency virus 1, JRCSF ISOLATE, PM1/CCR5, 120 h

Row | SMILES | EC50 [1] | CC50 at 120 h [3] | EC50 [4] | further results
1 | CC[C@H](C)[C@H](NC(=O)[C@H](CCCCN)NC(=O)[C@H](CC(=O)O)NC(=O)[C@H](CC(C)C)NC(C)=O)C(=O)N[C@@H](CCC(=O)O)C(=O)N[C@@H](CCC(=O)O)C(=O)N[C@@H](CCC(=O)O)C(=O)N[C@@H](CCC(N)=O)C(=O)N[C@@H](CC(N)=O)C(=O)N[C@@H](CCCCN)C(=O)N[C@@H](CO)C(=O)N[C@@H](CCCCN)C(=O)N[C@@H](CCCCN)C(=O)N[C@@H](CCCCN)C(=O)N[C@@H](C)C(=O)NCC(=O)N[C@@H](CSCC(=O)N[C@@H](CCCNC(=N)N)C(=O)N[C@@H](CCCNC(=N)N)C(=O)N[C@@H](CCCNC(=N)N)C(=O)N[C@@H](CCCNC(=N)N)C(=O)N[C@@H](CCCNC(=N)N)C(=O)N[C@@H](CCCNC(=N)N)C(=O)N[C@@H](CCCNC(=N)N)C(=O)N[C@@H](CCCNC(=N)N)C(N)=O)C(N)=O | 18 µM | > 50 µM | 23 µM | inhibition at 25 µM [2]: 17%
2 | CC(=O)N[C@@H](CO)C(=O)N[C@@H](CCCCN)C(=O)N[C@@H](CCCCN)C(=O)N[C@@H](CCCCN)C(=O)N[C@@H](C)C(=O)N[C@@H](CCC(N)=O)C(=O)N[C@@H](CCC(N)=O)C(=O)N[C@@H](C)C(=O)N[C@@H](C)C(=O)N[C@@H](C)C(=O)N[C@@H](CC(=O)O)C(=O)N[C@H](C(=O)NCC(=O)N[C@@H](CC(N)=O)C(=O)N[C@@H](CC(N)=O)C(=O)NCC(=O)N[C@@H](CSCC(=O)N[C@@H](CCCNC(=N)N)C(=O)N[C@@H](CCCNC(=N)N)C(=O)N[C@@H](CCCNC(=N)N)C(=O)N[C@@H](CCCNC(=N)N)C(=O)N[C@@H](CCCNC(=N)N)C(=O)N[C@@H](CCCNC(=N)N)C(=O)N[C@@H](CCCNC(=N)N)C(=O)N[C@@H](CCCNC(=N)N)C(N)=O)C(N)=O)[C@@H](C)O | 41 µM | > 50 µM | 27 µM | inhibition at 25 µM [2]: 30%
3 | CC[C@H](C)[C@H](NC(=O)[C@H](CCCCN)NC(=O)[C@H](CC(=O)O)NC(=O)[C@H](CC(C)C)NC(=O)[C@H](C)NC(=O)[C@H](CCC(=O)O)NC(=O)[C@H](CCCCN)NC(=O)[C@@H](NC(=O)[C@H](CC(=O)O)NC(=O)[C@H](CCCCN)NC(=O)[C@@H](NC(=O)[C@H](CC(=O)O)NC(=O)[C@@H](NC(=O)[C@H](CCCNC(=N)N)NC(C)=O)[C@@H](C)CC)C(C)C)[C@@H](C)O)C(=O)N[C@@H](CCC(=O)O)C(=O)NCC(=O)N[C@@H](CSCC(N)=O)C(N)=O |  | 17 µM |  | inhibition [5]: inactive
4 | CC[C@H](C)[C@H](NC(=O)[C@H](CCCNC(=N)N)NC(=O)[C@H](CCC(N)=O)NC(=O)[C@H](Cc1cnc[nH]1)NC(=O)[C@@H](NC(=O)[C@H](CO)NC(=O)[C@H](Cc1ccc(O)cc1)NC(=O)[C@H](CC(C)C)NC(=O)[C@@H](NC(=O)[C@H](C)NC(=O)[C@@H](NC(=O)[C@@H](NC(C)=O)[C@@H](C)O)[C@@H](C)CC)C(C)C)C(C)C)C(=O)N[C@@H](CC(=O)O)C(=O)N[C@H](C(=O)N[C@@H](CCCCN)C(=O)NCC(=O)N[C@@H](CSCC(=O)N[C@@H](CCCNC(=N)N)C(=O)N[C@@H](CCCNC(=N)N)C(=O)N[C@@H](CCCNC(=N)N)C(=O)N[C@@H](CCCNC(=N)N)C(=O)N[C@@H](CCCNC(=N)N)C(=O)N[C@@H](CCCNC(=N)N)C(=O)N[C@@H](CCCNC(=N)N)C(=O)N[C@@H](CCCNC(=N)N)C(N)=O)C(N)=O)C(C)C | 2.1 µM | 5.7 µM | 0.58 µM | solubility [6]: soluble; EC50 [7]: 0.43 µM
5 | CC[C@H](C)[C@H](NC(=O)[C@H](Cc1cnc[nH]1)NC(=O)[C@H](CCCCN)NC(=O)[C@H](CC(C)C)NC(=O)[C@H](CCCCN)NC(=O)[C@H](Cc1ccc(O)cc1)NC(=O)[C@H](CCC(N)=O)NC(=O)[C@H](CCCCN)NC(=O)[C@H](CCCCN)NC(=O)CNC(=O)CNC(=O)[C@@H]1CCCN1C(=O)[C@H](CCCNC(=N)N)NC(=O)[C@H](CC(C)C)NC(C)=O)C(=O)N[C@H](C(=O)NCC(=O)N[C@@H](CSCC(=O)N[C@@H](CCCNC(=N)N)C(=O)N[C@@H](CCCNC(=N)N)C(=O)N[C@@H](CCCNC(=N)N)C(=O)N[C@@H](CCCNC(=N)N)C(=O)N[C@@H](CCCNC(=N)N)C(=O)N[C@@H](CCCNC(=N)N)C(=O)N[C@@H](CCCNC(=N)N)C(=O)N[C@@H](CCCNC(=N)N)C(N)=O)C(N)=O)C(C)C |  | 36 µM |  | inhibition [8]: inactive
6 | CC(=O)N[C@@H](CC(C)C)C(=O)NCC(=O)N[C@@H](CCC(N)=O)C(=O)N[C@@H](CC(C)C)C(=O)N[C@@H](CCC(N)=O)C(=O)N1CCC[C@H]1C(=O)N[C@@H](CO)C(=O)N[C@@H](CC(C)C)C(=O)N[C@@H](CCC(N)=O)C(=O)N[C@H](C(=O)NCC(=O)N[C@@H](CO)C(=O)N[C@@H](CCC(=O)O)C(=O)N[C@@H](CCC(=O)O)C(=O)N[C@@H](CC(C)C)C(=O)NCC(=O)N[C@@H](CSCC(=O)N[C@@H](CCCNC(=N)N)C(=O)N[C@@H](CCCNC(=N)N)C(=O)N[C@@H](CCCNC(=N)N)C(=O)N[C@@H](CCCNC(=N)N)C(=O)N[C@@H](CCCNC(=N)N)C(=O)N[C@@H](CCCNC(=N)N)C(=O)N[C@@H](CCCNC(=N)N)C(=O)N[C@@H](CCCNC(=N)N)C(N)=O)C(N)=O)[C@@H](C)O | 35 µM | > 50 µM |  | inhibition at 50 µM [9]: 37%; inhibition at 50 µM [10]: 35%
7 | CC[C@H](C)[C@H](NC(=O)[C@H](Cc1cnc[nH]1)NC(=O)[C@H](CCCCN)NC(=O)[C@H](CC(C)C)NC(C)=O)C(=O)N[C@H](C(=O)N[C@@H](Cc1c[nH]c2ccccc12)C(=O)N[C@@H](C)C(=O)N[C@@H](CO)C(=O)N[C@@H](CCCNC(=N)N)C(=O)N[C@@H](CCC(=O)O)C(=O)N[C@@H](CC(C)C)C(=O)N[C@@H](CCC(=O)O)C(=O)N[C@@H](CCCNC(=N)N)C(=O)N[C@@H](Cc1ccccc1)C(=O)N[C@@H](C)C(=O)NCC(=O)N[C@@H](CSCC(N)=O)C(N)=O)C(C)C (Ac-LKHIVWASRELERFAGC(Cam)-NH2) |  | 14 µM |  | inhibition [5]: inactive
8 | CC(=O)N[C@@H](CC(=O)O)C(=O)N[C@H](C(=O)NCC(=O)N[C@@H](CC(N)=O)C(=O)N[C@@H](CC(N)=O)C(=O)N[C@@H](CO)C(=O)N[C@@H](CCC(N)=O)C(=O)N[C@H](C(=O)N[C@@H](CO)C(=O)N[C@@H](CCC(N)=O)C(=O)N[C@@H](CC(N)=O)C(=O)N[C@@H](Cc1ccc(O)cc1)C(=O)NCC(=O)N[C@@H](CS)C(N)=O)C(C)C)[C@@H](C)O |  |  |  | solubility [6]: Insoluble
9 | CC[C@H](C)[C@H](NC(=O)[C@H](Cc1cnc[nH]1)NC(=O)[C@H](CCCCN)NC(=O)[C@H](CC(C)C)NC(=O)[C@H](CCCCN)NC(=O)[C@H](Cc1ccc(O)cc1)NC(=O)[C@H](CCC(N)=O)NC(=O)[C@H](CCC(=O)O)NC(=O)[C@H](Cc1c[nH]c2ccccc12)NC(=O)[C@H](CCCCN)NC(=O)[C@H](CC(=O)O)NC(=O)[C@H](CC(C)C)NC(=O)[C@H](CCC(=O)O)NC(=O)CNC(C)=O)C(=O)N[C@H](C(=O)NCC(=O)N[C@@H](CSCC(=O)N[C@@H](CCCNC(=N)N)C(=O)N[C@@H](CCCNC(=N)N)C(=O)N[C@@H](CCCNC(=N)N)C(=O)N[C@@H](CCCNC(=N)N)C(=O)N[C@@H](CCCNC(=N)N)C(=O)N[C@@H](CCCNC(=N)N)C(=O)N[C@@H](CCCNC(=N)N)C(=O)N[C@@H](CCCNC(=N)N)C(N)=O)C(N)=O)C(C)C |  | 36 µM |  | inhibition [8]: inactive
10 | CC(=O)N[C@@H](CC(C)C)C(=O)N[C@@H](CCC(=O)O)C(=O)N[C@@H](CCCNC(=N)N)C(=O)N[C@@H](Cc1ccccc1)C(=O)N[C@@H](C)C(=O)N[C@H](C(=O)N[C@@H](CC(N)=O)C(=O)N1CCC[C@H]1C(=O)NCC(=O)N[C@@H](CC(C)C)C(=O)N[C@@H](CC(C)C)C(=O)N[C@@H](CCC(=O)O)C(=O)N[C@H](C(=O)N[C@@H](CO)C(=O)N[C@@H](CCC(=O)O)C(=O)NCC(=O)N[C@@H](CSCC(=O)N[C@@H](CCCNC(=N)N)C(=O)N[C@@H](CCCNC(=N)N)C(=O)N[C@@H](CCCNC(=N)N)C(=O)N[C@@H](CCCNC(=N)N)C(=O)N[C@@H](CCCNC(=N)N)C(=O)N[C@@H](CCCNC(=N)N)C(=O)N[C@@H](CCCNC(=N)N)C(=O)N[C@@H](CCCNC(=N)N)C(N)=O)C(N)=O)[C@@H](C)O)C(C)C | 40 µM | > 50 µM | 42 µM | inhibition at 50 µM [9]: 42%
11 | CC[C@H](C)[C@H](NC(=O)[C@@H](NC(=O)[C@H](CC(N)=O)NC(=O)[C@H](Cc1ccc(O)cc1)NC(=O)[C@H](CC(C)C)NC(=O)[C@H](CO)NC(=O)[C@H](CCCNC(=N)N)NC(=O)[C@H](CC(C)C)NC(=O)[C@H](CCC(=O)O)NC(=O)[C@H](CCC(=O)O)NC(=O)[C@H](CO)NC(=O)CNC(C)=O)[C@@H](C)O)C(=O)N[C@@H](C)C(=O)N[C@H](C(=O)N[C@@H](CC(C)C)C(=O)NCC(=O)N[C@@H](CSCC(=O)N[C@@H](CCCNC(=N)N)C(=O)N[C@@H](CCCNC(=N)N)C(=O)N[C@@H](CCCNC(=N)N)C(=O)N[C@@H](CCCNC(=N)N)C(=O)N[C@@H](CCCNC(=N)N)C(=O)N[C@@H](CCCNC(=N)N)C(=O)N[C@@H](CCCNC(=N)N)C(=O)N[C@@H](CCCNC(=N)N)C(N)=O)C(N)=O)C(C)C | 2.3 µM | 9 µM | 7.8 µM | solubility [6]: soluble; EC50 [7]: 5.8 µM
